In US10369145B2, “Coumarin derivatives and methods of use in treating hyperproliferative diseases” (DISCOVERYBIOMED, INC., priority 2013, dated 2019):

What was measured:
Type in all cases: cell-based
CCRF-CEM = test: NCI 60 panel: CCRF-CEM (Leukemia)
Description: (§5) TGI means the drug concentration resulting in total growth inhibition or “cytostasis.” LC50 is the concentration of drug resulting in a 50% reduction in the measured cytosolic ATP at the end of the drug treatment as compared to that at the beginning, indicating a net loss of cells following treatment (cytotoxicity).

MOLT-4 = test: NCI 60 panel: MOLT-4 (Leukemia)
Description: as §5

RPMI-8226 = test: NCI 60 panel: RPMI-8226 (Leukemia)
Description: as §5

HOP-62 = test: NCI 60 panel: HOP-62 (Non-Small Cell Lung Cancer)
Description: as §5

HCC-2998 = test: NCI 60 panel: HCC-2998 (Colon Cancer)
Description: as §5

SF-295 = test: NCI 60 panel: SF-295 (CNS Cancer)
Description: as §5

SNB-75 = test: NCI 60 panel: SNB-75 (CNS Cancer)
Description: as §5

M14 = test: NCI 60 panel: M14 (Melanoma)
Description: as §5

SK-MEL-2 = test: NCI 60 panel: SK-MEL-2 (Melanoma)
Description: as §5

SK-MEL-28 = test: NCI 60 panel: SK-MEL-28 (Melanoma)
Description: as §5

IGROV1 = test: NCI 60 panel: IGROV1 (Ovarian Cancer)
Description: as §5

OVCAR-4 = test: NCI 60 panel: OVCAR-4 (Ovarian Cancer)
Description: as §5

OVCAR-5 = test: NCI 60 panel: OVCAR-5 (Ovarian Cancer)
Description: as §5

OVCAR-8 = test: NCI 60 panel: OVCAR-8 (Ovarian Cancer)
Description: as §5

A498 = test: NCI 60 panel: A498 (Renal Cancer)
Description: as §5

RXF 393 = test: NCI 60 panel: RXF 393 (Renal Cancer)
Description: as §5

PC-3 = test: NCI 60 panel: PC-3 (Prostate Cancer)
Description: as §5

T-47D = test: NCI 60 panel: T-47D (Breast Cancer)
Description: as §5

MDA-MB-468 = test: NCI 60 panel: MDA-MB-468 (Breast Cancer)
Description: as §5

T98G = test: Complementary DBM in vitro profiling: T98G (CNS Cancer)
Description: (§1) The compounds described herein are effective for inhibiting cellular proliferation in hyperproliferative cell types. To study the effects of these compounds, an assay was developed to differentiate the effects of the compounds on proliferating versus confluent cells. The assay design generates a proliferating density 24 hours after seeding and provides a 3-day active cell growth/doubling window in which to gauge the anti-proliferative effect of the compounds described herein. […] In this 3-day growth window, cell number increases with daily doublings across the 72-hour period (see FIG. 1).
(§2) In each assay design, compounds were added at the 24-hour timepoint after cell seeding. The effect of the compounds, relative to vehicle control and to VelCade (a proteasome inhibitor approved in the U.S. for treating relapsed multiple myeloma and mantle cell lymphoma) as a positive control, was assessed across the 3-day growth window for proliferating cells and on an already near confluent culture of cells for the same time period. Normal cells were handled in the same manner, with some adjustment of seeding density needed in select cases. […]
(§3) Cell number at the end of the assay was determined using the CELLTITER-GLO Luminescent Cell Viability Assay (Promega; Madison, Wis.). The CELLTITER-GLO Luminescent Cell Viability Assay is a homogeneous method of determining the number of viable cells in culture based on quantitation of the ATP present, an indicator of metabolically active cells. IC50 values were calculated. […]
(§4) For a typical screening experiment to identify the compounds, cells were seeded into 96- or 384-well microtiter plates at plating densities pre-determined for each cell line to ensure drug exposure occurs during the proliferative phase well before confluency is reached. […] Values were calculated for each of these three parameters if the level of activity was reached; however, if the effect was not reached or was exceeded, the value for that parameter was expressed as greater or less than the maximum or minimum concentration tested.

ARH-77 = test: Complementary DBM in vitro profiling: ARH-77 (Hematologic Cancer)
Description: as §1, §2, §3, §4

SK-OV-3 = test: Complementary DBM in vitro profiling: SK-OV-3 (Ovarian Cancer)
Description: as §1, §2, §3, §4

FaDu = test: Complementary DBM in vitro profiling: FaDu (Hypopharyngeal Cancer)
Description: as §1, §2, §3, §4

[1] = system: primary human ADPKD cystic epithelial cell lines, ARCaP-M, CAKI-1; test: Viability in cystic ADPKD cells, prostate and kidney cancer lines
Description: as §1
In each assay design, compounds were added at the 24-hour timepoint after cell seeding. The effect of the compounds, relative to vehicle control and to VelCade (a proteasome inhibitor approved in the U.S. for treating relapsed multiple myeloma and mantle cell lymphoma) as a positive control, was assessed across the 3-day growth window for proliferating cells and on an already near confluent culture of cells for the same time period. Normal cells were handled in the same manner, with some adjustment of seeding density needed in select cases. This assay design holds for the data series presented below.
Cell number at the end of the assay was determined using the CELLTITER-GLO Luminescent Cell Viability Assay (Promega; Madison, Wis.). The CELLTITER-GLO Luminescent Cell Viability Assay is a homogeneous method of determining the number of viable cells in culture based on quantitation of the ATP present, an indicator of metabolically active cells. IC50 values were calculated. Cell number (number of cells per well) was converted to the % of DMSO matched controls. Each measurement was performed in triplicate. Typical dosage ranges tested were from 250 picomolar to 50 micromolar.
The compounds as described herein were tested on primary human ADPKD cystic epithelial cell lines as well as two common cancer cell lines from the prostate (ARCaP-M) and kidney (CAKI-1).

[2] = read-out: LC50 (the source's name)

COc1ccccc1Nc1nc(-c2cc3cccc(N)c3oc2=O)cs1 [Compound DBM 228]
GI50 (CCRF-CEM): 0.177 µM
LC50 (50% lethal concentration) (CCRF-CEM): > 100 µM
TGI (CCRF-CEM): 15.4 µM
GI50 (MOLT-4): 0.168 µM
TGI (MOLT-4): 17.8 µM
CC50 (MOLT-4; [2]): > 100 µM
GI50 (RPMI-8226): 0.238 µM
TGI (RPMI-8226): 43.9 µM
CC50 (RPMI-8226; [2]): > 100 µM
GI50 (HOP-62): 0.537 µM
TGI (HOP-62): 44.8 µM
CC50 (HOP-62; [2]): > 100 µM
GI50 (HCC-2998): 1.05 µM
TGI (HCC-2998): 16.5 µM
CC50 (HCC-2998; [2]): > 100 µM
GI50 (SF-295): 0.0424 µM
TGI (SF-295): 1.49 µM
CC50 (SF-295; [2]): 41.5 µM
GI50 (SNB-75): 0.0481 µM
CC50 (SNB-75; [2]): > 100 µM
GI50 (M14): 0.0708 µM
CC50 (M14; [2]): 49.9 µM
GI50 (SK-MEL-2): 0.086 µM
TGI (SK-MEL-2): 28.4 µM
CC50 (SK-MEL-2; [2]): 99.5 µM
GI50 (SK-MEL-28): 0.0889 µM
TGI (SK-MEL-28): 31 µM
CC50 (SK-MEL-28; [2]): 99.3 µM
GI50 (IGROV1): 1.23 µM
TGI (IGROV1): 23.4 µM
CC50 (IGROV1; [2]): > 100 µM
GI50 (OVCAR-4): 1.35 µM
TGI (OVCAR-4): 25 µM
CC50 (OVCAR-4; [2]): > 100 µM
GI50 (OVCAR-5): 0.592 µM
TGI (OVCAR-5): 15.7 µM
CC50 (OVCAR-5; [2]): 51.9 µM
GI50 (OVCAR-8): 0.31 µM
TGI (OVCAR-8): 13.2 µM
CC50 (OVCAR-8; [2]): > 100 µM
GI50 (A498): 0.0354 µM
TGI (A498): 4.42 µM
CC50 (A498; [2]): > 100 µM
GI50 (RXF 393): 0.218 µM
TGI (RXF 393): 15.2 µM
CC50 (RXF 393; [2]): 52.6 µM
GI50 (PC-3): 0.27 µM
TGI (PC-3): 36 µM
CC50 (PC-3; [2]): > 100 µM
TGI (T-47D): 55.9 µM
CC50 (T-47D; [2]): > 100 µM
GI50 (MDA-MB-468): 0.0471 µM
TGI (MDA-MB-468): 0.8 µM
CC50 (MDA-MB-468; [2]): 60.9 µM
GI50 (T98G): 0.467 µM
TGI (T98G): 3.97 µM
CC50 (T98G; [2]): 17.6 µM
GI50 (ARH-77): 0.154 µM
TGI (ARH-77): 0.339 µM
CC50 (ARH-77; [2]): > 30 µM
GI50 (SK-OV-3): 0.845 µM
TGI (SK-OV-3): >30 µM
CC50 (SK-OV-3; [2]): > 30 µM
GI50 (FaDu): 1.4 µM
TGI (FaDu): 8.74 µM
CC50 (FaDu; [2]): 27.5 µM
effect on cells, in words ([1]; at and around the 1 micromolar dose): cytostatic plateau
effect on cells, in words ([1]; higher mid-micromolar concentrations): cytotoxic effect
effect on cells, in words ([1]; nanomolar ranges, 12-point CRC): growth arrested but not killed
